Data taken from PMC5905968, “Evaluation of the fusion inhibitor P3 peptide as a potential microbicide to prevent HIV transmission in women” (PLoS ONE, 2018).

Assays:
[1] = tested on: vaginal epithelium of BALB/c mice; assay: BALB/c mice vaginal irritation test with histological score; type: in vivo; design: key to Epithelial lesion / Inflammatory infiltrate / Vascular congestion / Edema/fibrosis / Total Score: 0 (no change) when no injury or the observed changes were within normal range; 1 (minimum) when changes were sparse but exceeded those considered normal; 2 (light) when injuries were identifiable but with no severity; 3 (moderate) for significant injury that could increase in severity; 4 (very serious) for very serious injuries that occupy most of the analyzed tissue; settings: for Edema/fibrosis / Epithelial lesion / Inflammatory infiltrate / Vascular congestion / Total Score: 3% N9 intravaginally, 7 days (irritation control); for Total Score: sum of the four lesion scores
Experimental: Female BALB/c mice (6–8 weeks-old) (Charles River Laboratories, Wilmington, MA) were pretreated subcutaneously with 2mg of medroxyprogesterone acetate (Depo-Provera; Pfizer, NY, USA) in PBS (Lonza, Verviers, Belgium). After five days, 30μl of test formulation with different doses of P3 diluted in PBS was applied intravaginally daily for 7 days by vaginal gavage to animals previously anesthetized with isoflurane (Forane, Abbott, Madrid). Controls included mice that received PBS (placebo group) and 3% nonoxynol-9 (N9) in PBS (irritation control group). On the eighth day, mice were sacrificed and genital tract tissue were extracted and fixed in 4% paraformaldehyde for histological analysis. The animals were distributed in groups of three mice each: group placebo only treated with PBS (1–3), group A treated with dose of 0.06mg/day ([…]) of P3 in PBS (4–6), group B treated with dose of 0.2mg/day (1522.7 μM) of P3 in PBS (7–9), group C treated with dose of 0.4mg/day (3045.3 μM) of P3 in PBS (10–12) and group irritation control treated with 3% N9 in PBS (13–15).
The presence of histological lesions in the mouse vaginas was evaluated with hematoxylin-eosin staining. Samples were embedded in paraffin by submersion in increasing concentrations of ethanol in water (Rectapur, VWR, England), two baths of xylene (Analar (VWR, England) and another of paraffin, before being placed in a paraffin mold. Subsequently, they were cut using a semimotorized microtome (RM2145 Leica, Germany) and processed for staining. For dewaxing, samples were submersed into two baths of xylene solution (10 min) and three baths in descending order of ethanol (100%, 90% and 70%) (5 min), before being stained with hematoxylin (Merck, Germany) for 5 min and eosin (Merck, Germany) for another 5 min. Post-eosin staining dehydration was performed with passages in increasing concentrations of ethanol (70%, 90% and 100%) and a bath of xylene solution. Finally, they were mounted with D.P.X. (Prolabo, VWR, Spain).
The existence of injury in vaginal epithelium, inflammatory infiltrate, vascular congestion and/or edema in the submucosa was evaluated in each biological sample. The values (score) assigned for each of these lesions were: 0 (no change) when no injury or the observed changes were within normal range; 1 (minimum) when changes were sparse but exceeded those considered normal; 2 (light) when injuries were identifiable but with no severity; 3 (moderate) for significant injury that could increase in severity; 4 (very serious) for very serious injuries that occupy most of the analyzed tissue. These values were added up and determined the level of vaginal irritation as minimum 1–4, average 5–8, moderate 9–11 and severe 12–16 [34].

[2] = at temperatures higher than 40 °C; cited from earlier work
Experimental: Microbicides must be stable at 37°C for a long period of time since it is the body temperature, and at 65 °C since some manufacturing processes may require high temperatures. Stability at room temperature or at 4 °C is also important since the storage at these temperatures is easier for the user and more affordable than at -20 °C. No statistically significance differences were observed on the anti-HIV-1 activity of P3 peptide stored at 25, 37 and 65 °C for a period of a week. The stability of P3 under different temperatures is much better than other peptide-based microbicide candidates or d ...

Compound | level of irritation of the vaginal wall ([1]; 3% N9 in PBS daily for 7 days, three samples) | Edema/fibrosis ([1]; mouse 13) | Epithelial lesion ([1]; mouse 13) | Inflammatory infiltrate ([1]; mouse 13) | Vascular congestion ([1]; mouse 13) | Total Score ([1]; mouse 13) | Edema/fibrosis ([1]; mouse 14) | Epithelial lesion ([1]; mouse 14) | Inflammatory infiltrate ([1]; mouse 14) | Vascular congestion ([1]; mouse 14) | Total Score ([1]; mouse 14) | Edema/fibrosis ([1]; mouse 15) | Epithelial lesion ([1]; mouse 15) | Inflammatory infiltrate ([1]; mouse 15) | Vascular congestion ([1]; mouse 15) | Total Score ([1]; mouse 15) | thermal stability [2]
CCCCCCCCCc1ccc(OCCOCCOCCOCCOCCOCCOCCOCCOCCO)cc1 [N9, nonoxynol-9, reference compound] | average (average 5–8) | 0 | 3 | 3 | 2 | 8 | 0 | 2 | 3 | 2 | 7 | 0 | 3 | 3 | 2 | 8 | –
Spantide II | – | – | – | – | – | – | – | – | – | – | – | – | – | – | – | – | not stable
